From patent publication US11291666B2, “Uses” (INTRA-CELLULAR THERAPIES, INC., priority 2016, dated 2022)
Entries after “also recorded” stand apart in the source; their conditions may differ.

What was measured:
bovine retina PDE6 = biological target: T1, bovine retina PDE6 (Bos taurus, UniProt P11541+P23439); assay: PDE selectivity, bovine retina PDE6; assay type: biochemical
T1 construct: bovine retina PDE6; from tissue; host or cells: bovine retina
T1 sequence (P11541 2-856 limits assumed): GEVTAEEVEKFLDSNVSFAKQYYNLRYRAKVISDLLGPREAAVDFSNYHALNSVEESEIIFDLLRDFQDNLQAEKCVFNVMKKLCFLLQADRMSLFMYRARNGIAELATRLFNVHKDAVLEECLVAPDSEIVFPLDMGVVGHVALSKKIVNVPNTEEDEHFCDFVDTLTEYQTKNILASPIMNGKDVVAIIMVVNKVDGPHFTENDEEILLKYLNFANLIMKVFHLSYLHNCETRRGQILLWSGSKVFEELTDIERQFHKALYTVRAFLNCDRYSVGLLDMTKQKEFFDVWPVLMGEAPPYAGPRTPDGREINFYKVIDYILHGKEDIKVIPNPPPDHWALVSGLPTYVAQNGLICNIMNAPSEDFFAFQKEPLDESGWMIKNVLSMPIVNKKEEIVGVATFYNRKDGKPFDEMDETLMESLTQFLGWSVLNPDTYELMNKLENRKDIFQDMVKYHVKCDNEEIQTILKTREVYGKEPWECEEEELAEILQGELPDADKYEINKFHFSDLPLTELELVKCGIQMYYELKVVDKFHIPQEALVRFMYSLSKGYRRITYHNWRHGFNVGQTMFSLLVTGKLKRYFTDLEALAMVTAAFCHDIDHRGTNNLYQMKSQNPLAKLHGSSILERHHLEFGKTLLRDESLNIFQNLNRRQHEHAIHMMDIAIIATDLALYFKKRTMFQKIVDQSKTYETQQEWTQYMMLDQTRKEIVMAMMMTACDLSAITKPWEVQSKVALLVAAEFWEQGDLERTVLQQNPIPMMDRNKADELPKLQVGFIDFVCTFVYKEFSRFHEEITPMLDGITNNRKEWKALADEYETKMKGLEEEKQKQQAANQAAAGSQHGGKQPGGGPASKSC
T1 sequence (P23439 2-850 limits assumed): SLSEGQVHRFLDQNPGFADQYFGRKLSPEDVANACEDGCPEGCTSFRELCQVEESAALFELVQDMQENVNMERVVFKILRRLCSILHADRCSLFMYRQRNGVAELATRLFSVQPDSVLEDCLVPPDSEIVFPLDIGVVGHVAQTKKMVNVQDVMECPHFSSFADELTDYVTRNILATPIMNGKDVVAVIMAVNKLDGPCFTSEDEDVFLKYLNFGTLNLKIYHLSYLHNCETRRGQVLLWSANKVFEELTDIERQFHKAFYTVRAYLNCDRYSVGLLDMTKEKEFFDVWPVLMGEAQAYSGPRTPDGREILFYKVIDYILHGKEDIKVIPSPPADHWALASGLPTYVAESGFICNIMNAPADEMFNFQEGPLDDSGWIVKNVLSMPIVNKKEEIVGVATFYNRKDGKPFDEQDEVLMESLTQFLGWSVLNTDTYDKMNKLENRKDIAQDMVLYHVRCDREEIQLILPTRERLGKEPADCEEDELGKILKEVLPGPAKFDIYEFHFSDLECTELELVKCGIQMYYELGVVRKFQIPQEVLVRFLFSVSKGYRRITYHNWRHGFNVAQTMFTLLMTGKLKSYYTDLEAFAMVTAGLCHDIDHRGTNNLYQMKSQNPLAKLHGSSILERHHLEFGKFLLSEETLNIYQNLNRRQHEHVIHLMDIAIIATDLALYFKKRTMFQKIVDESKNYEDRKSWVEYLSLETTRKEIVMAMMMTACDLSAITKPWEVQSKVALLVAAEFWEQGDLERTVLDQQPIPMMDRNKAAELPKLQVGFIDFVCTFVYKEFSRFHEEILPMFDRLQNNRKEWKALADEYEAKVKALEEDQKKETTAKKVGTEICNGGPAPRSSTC
Procedure: One unit of enzyme will hydrolyze […] of 3′,5′-cAMP to 5′-AMP per min at pH 7.5 at 30° C. […] 99 μl of diluted enzyme solution is added into each well in a flat bottom 96-well polystyrene plate to which 1 μι of test compound dissolved in 100% DMSO is added.

BV2 cells = assay: RNAseq analysis of LPS-stimulated BV2 cells, differentially expressed transcripts; assay type: cell-based, mouse; details: for genes affected by both Compound 214 and Rolipram / genes significantly affected by this compound but not the other (Compound 214 / Rolipram) / overlap of genes affected by Compound 214 and Rolipram: LPS-stimulated BV2 cells
Procedure: The test compound is added first, the LPS is added one hour later, and the cells and/or media are harvested at five hours from commencement of the experiment.
RNASeq: Flashfreeze BV2cells, isolate RNA, prepare a library using polyA selection, and conduct 1×50 bp single read sequencing on the Illumina HiSeq 2500 in High Output mode (using V4 chemistry). Genes are mapped to reference genome (GRCm38) using CLC Genomics Server. Number of reads per sample average ˜17 million. Differential gene expression analysis is performed using DESeq2software (Bioconductor.org). Differentially expressed genes (p<0.01, Waldtest) are reported as log 2(fold change).

[1] = system: IL1β mRNA in the hippocampus; assay: IL1β expression in hippocampus in vivo after LPS (quantitative PCR); details: mice; LPS 2 mg/kg s.c.; 10 mg/kg i.p.; six hours post injection; FIG. 3
Procedure: At six hours post injection, levels of IL1β in the hippocampus are measured via quantitative PCR of IL1β mRNA. IL1β is considered a marker of inflammation. Data are presented in FIG. 3 (***p<0.01 vs LPS alone, ANOVA with Newman-Keuls post-hoc test).

IC50 (bovine retina PDE6): 0.324 µM
SMILES: CN1C(=O)c2c(nn(Cc3ccc(-c4cccc(F)n4)cc3)c2Nc2ccccc2)N2C1=N[C@@H]1CCC[C@@H]12 [Compound 214]
mRNA transcripts decreased in the presence of LPS + compound vs. LPS alone (BV2 cells; BV2 cells, RNAseq): 138 transcripts | overlap between the Compound 214 and rolipram sets of decreased transcripts (BV2 cells; BV2 cells, RNAseq): 48 transcripts | overlap between the Compound 214 and rolipram sets of elevated transcripts (BV2 cells; BV2 cells, RNAseq): 45 transcripts | transcripts elevated in the presence of LPS + compound vs. LPS alone (BV2 cells; BV2 cells, RNAseq): 149 transcripts | genes affected by both Compound 214 and Rolipram (BV2 cells; further RNASeq analysis): 114 genes | genes significantly affected by this compound but not the other (Compound 214 / Rolipram) (BV2 cells; further RNASeq analysis): 293 genes | overlap of genes affected by Compound 214 and Rolipram (BV2 cells; further RNASeq analysis): about 17% | genes affected by both Compound 214 and Rolipram (BV2 cells; still a further experiment): 683 genes | genes significantly affected by this compound but not the other (Compound 214 / Rolipram) (BV2 cells; still a further experiment): 1240 genes | overlap of genes affected by Compound 214 and Rolipram (BV2 cells; still a further experiment): about half | LPS-induced increase in expression of IL1β in the hippocampus (mRNA) [1]: suppresses; also recorded: significantly blunts
